Here are results for 1 molecule from US6399580B1, “Methods and compositions for stimulating tissue growth and epithelial moisturization” (The Regents of the University of California, priority 1994, dated 2002).

The subject of one test is hairless mouse epidermis. As to the kind of experiment: Epidermal / stratum corneum lipid content (HPTLC/TLC). It counts as in vivo. How it is done: Hairless mice were treated with BrCBE for 5 days as described in Example 10. The following high performance thin layer chromatograph (HPTLC) system was developed for optimal separation of ceramides and glucosylceramides for quantitation by spectrodensitometry. Extracts were applied to precleaned 10 ×20 cm HPTLC plates, 0.5 cm from lower edge of the plate and fractionated sequentially in a horizontal developmental chamber (Camag, Muttenz, Switzerland) in the following solvent systems: 1) chloroform:methanol:acetic acid (190:9:1), v/v/v) to the top, twice; 2) chloroform:methanol:acetone (76:20:4, by volume) to 30 mm. Between each development, the plate was dried for 5 minutes on a hot plate (40° C.), cooled for 2 minutes, and equilibrated in the tank with the solvents for 3 minutes. After final development, the plates were dried, cooled, dipped in charring solution (1.5% cupric sulfate in acetic acid:sulfuric acid:orthophosphoric acid:water (50:10:10:30, by volume) for 15 seconds, dried (40° .C) for 5 minutes, and then charred at 180° C. for 15 minutes. Plates were scanned with a variable wavelength scanning densitometer (Camag, Muttenz, Switzerland). Lipid amounts for each fraction were estimated using ceramides 3 and 4, and galactosylceramides 1 and 2 as reference standards (Sigma Chemical Co., St. Louis, Mo.).
The epidermal glucosylceramide content was determined in mice treated with the topical β-glucocerebrosidase inhibitors. Mice were treated with CBE for one day as described in FIG. 22. The mice were sacrificed and whole skin was excised. Subcutaneous fascia and fat were scraped off, and the samples were placed dermis side down onto […] EDTA in PBS-CMF (pH 7.4) and incubated at 37° C. for 40 min. Skin was blotted dry with a tissue and the epidermis was removed by scraping with a surgical blade. The epidermis was minced, placed into microcentrifuge vials, immediately snap frozen and stored in liquid N2 until extracted.
For extraction the tissue was soaked in 7.6 ml Bligh/Dyer extraction media (2 ml chloroform, 4 ml Methanol, 1.6 ml H2O) overnight at room temperature. The following day the tissue was shaken for 20 min. and centrifuged for 10 min. the solvent was removed and the pellet was combined with 7.6 ml Bligh/Dyer media and again shaken and centrifuged. The solvents were combined with solvent from the soaks and filtered through pre-solvent-washed Whatman 43 filter paper, 2 ml chloroform and 2 ml H2O was added to each 7.6 ml quantity of the filtrate and shaken for 10 min. The samples were then centrifuged and the upper phase discarded. The lower phase was washed with 4 ml chloroform, 4 ml MetOH, and 3.6 ml H2O (shaken for 10 min and centrifuged). The upper phase was discarded. The lower phase was dried under N2 in a 47° C. water bath. The lipid was resuspended in chloroform and weighed on the Cahn balance.
TLC was performed using 15-20 μg samples and quantitated against standard glycosylceramide and 40 μg sample for sphingolipids (Holleran, W. M. et al. (1993) J. Clin. Invest. 91:1656-1664).
Both glucosylceramide and ceramide content was then determined in lower (stratum basale) and upper (stratum spinosum, stratum granulosum and stratum corneum) epidermis (FIG. 23). Following 24 hours of CBE treatment samples were excised following treatment (as in Example 16).

Test [1] concerns cultured human keratinocytes. As to the kind of experiment: [3H]-thymidine incorporation and DNA content in cultured human keratinocytes. It counts as cell-based. To be noted: 24 hours, FIG. 12. How it is done:
To determine the ability of exogenous glucosylceramides (GlcCER) to stimulate epidermal proliferation, we applied various concentrations of GlcCER to cultural human keratinocytes (third passage). Keratinocytes were isolated from human neonatal foreskins by a modification of the method of Pittelkow, M. R. and Scott, R. E. ( (1986) Proc. Mayo Clin. 61:771-777) Cells were added to 100 mm plastic Petri dishes at a density of 1 to 2×10^4 cells/cm^2, and grown initially in 10mls of Keratinocyte Growth Medium (KGM) (Clonetics, San Diego, Calif.) with 0.07 mM calcium. The cultures were maintained at 35° C. under 5% CO2 in air, with medium changes performed three times weekly. After the cells reached 70%-80% confluence, they were switched to KGM medium containing 1.2 mM calcium, and harvested at one week post-confluence. GlcCER was added for the last 24 hours of culture and ^3H-thymidine (1 μCi/ml) was added one-to-three hours prior to harvesting of cells for measurement of DNA synthesis and DNA content. (Proksch, E., et al., J. Clin. Invest. 87:1668-1673 (1991).
Using the method described in Example 5, incorporation of [^3H]-thymidine and total DNA content were measured in cultured human keratinocytes (CHK) grown in serum-free keratinocyte growth medium (KGM) supplemented with 0.07 mM .calcium. Cultured cell were further supplemented as indicated, with ceramide (Cer; 5 or 10 μM), glucosylceramide (GlcCER; 1.25 or 2.5 μM), or a combination of ceramide and glucosylceramide (10 and 1.25 μM, respectively).
CHK cells were grown in serum-free KGM supplemented both with 0.07 mM calcium and 10 μM ceramide (CER). Increasing concentrations of glucosylceramide were added (2.5 to 10 μM), and both [^3H]-thymidine (1 μCi/ml) and [^14C]-leucine (1 μCi/ml) incorporation assays were performed.
CHK cells were grown (as in Example 6)in serum-free KGM (0.07 mM calcium) and supplemented with increasing concentrations of ceramide (CER) alone (dark bars), glucosylceramide (GlcCer) alone (back row), or the combination of ceramide (10 μM) with increasing glucosylceramide (front row). […] Glucosylceramide alone again stimulated thymidine incorporation (>20%) at low concentrations (1.25 and 2.5 μM).
CHK cells were grown (as in Example 6) in serum-free KGM ([…]) supplemented with glucosylceramide (GlcCER) alone, or in combination with the β-glucocerebrosidase-inhibitor, CBE (3 or 10 μM) (FIG. 12). Incorporation of [^3H]-thymidine was measured at 24 hours following supplementation, and values are reported as percent of unsupplemented controls (mean ±S.D.; n>6). […] A low CBE concentration (3 μM) was ineffective.
(In general: Dividing cells build labelled thymidine or BrdU into new DNA.)

Setting [2] is: one day of CBE treatment, FIG. 23.

Consider `O[C@H]1[C@H](O)[C@@H](O)[C@@H]2O[C@@H]2[C@@H]1O` (racemic) [CBE, conduritol-B-epoxide], for which the “level of glucosylceramide, higher in treated samples” value in the test with hairless mouse epidermis (20 μl of 250 nmol/μl CBE tid x5d, 250 mm^2 skin sample) is reported as 34-147%; in the test on hairless mouse epidermis (40 μl of 250 nmol/μl CBE tid x3d, 500 mm^2 skin sample) it was 57-152%. For the same molecule, the epidermal glucosylceramide content result with hairless mouse epidermis (one day of CBE application, FIG. 22) was “invariably increased”. Further, the “ceramide levels of upper and lower epidermis” value in the test on hairless mouse epidermis (setting [2]) is “not significantly altered”. In the test on hairless mouse epidermis (setting [2]), the “glucosylceramide content of upper and lower epidermis” value is given as “significant increase”. The “inhibition of thymidine incorporation caused by higher glucosylceramide concentrations” value was “ineffective” in test [1] (CBE 3 μM with GlcCER) and “blocked the inhibition” in test [1] (CBE 10 μM with GlcCER).
